Each structure is given as a SMILES string.

For 1 compound, EC50 and Ki results are on record in patent US20230176038A1, “Methods for Identifying Modulators of Insect Transient Receptor Potential Channels” (BASF Corporation, priority 2019, published 2023).

Assay [1] deals with T1, complexes formed by Nanchung and Water witch proteins (Wtrw + Nan) (Drosophila melanogaster, UniProt Q9VHY7+Q9VUD5).
T1 construct: adenoviral co-expression in CHO-K1 cells, fluo-4 calcium FLIPR
T1 sequence (Q9VUD5 1-833): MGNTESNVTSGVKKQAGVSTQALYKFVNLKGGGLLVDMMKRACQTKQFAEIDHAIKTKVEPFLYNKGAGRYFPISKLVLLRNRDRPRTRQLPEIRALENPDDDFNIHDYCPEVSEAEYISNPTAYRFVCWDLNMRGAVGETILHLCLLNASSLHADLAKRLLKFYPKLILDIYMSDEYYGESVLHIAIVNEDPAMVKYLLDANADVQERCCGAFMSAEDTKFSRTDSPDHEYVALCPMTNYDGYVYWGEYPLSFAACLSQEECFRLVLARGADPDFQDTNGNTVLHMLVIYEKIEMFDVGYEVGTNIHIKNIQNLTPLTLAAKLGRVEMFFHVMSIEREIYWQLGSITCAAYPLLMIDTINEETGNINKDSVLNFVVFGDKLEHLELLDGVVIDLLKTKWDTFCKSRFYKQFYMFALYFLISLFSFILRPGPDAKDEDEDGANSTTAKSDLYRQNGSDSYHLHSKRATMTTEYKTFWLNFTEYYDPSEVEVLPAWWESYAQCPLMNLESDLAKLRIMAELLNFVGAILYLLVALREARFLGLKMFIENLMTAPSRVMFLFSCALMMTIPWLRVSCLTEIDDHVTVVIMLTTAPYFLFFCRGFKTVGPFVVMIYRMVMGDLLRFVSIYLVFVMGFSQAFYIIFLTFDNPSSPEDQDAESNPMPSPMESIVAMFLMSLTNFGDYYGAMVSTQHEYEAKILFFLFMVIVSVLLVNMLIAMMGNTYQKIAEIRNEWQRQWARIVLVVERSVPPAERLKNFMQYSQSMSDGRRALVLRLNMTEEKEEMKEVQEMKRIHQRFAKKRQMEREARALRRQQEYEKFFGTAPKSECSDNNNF
T1 sequence (Q9VHY7 1-986): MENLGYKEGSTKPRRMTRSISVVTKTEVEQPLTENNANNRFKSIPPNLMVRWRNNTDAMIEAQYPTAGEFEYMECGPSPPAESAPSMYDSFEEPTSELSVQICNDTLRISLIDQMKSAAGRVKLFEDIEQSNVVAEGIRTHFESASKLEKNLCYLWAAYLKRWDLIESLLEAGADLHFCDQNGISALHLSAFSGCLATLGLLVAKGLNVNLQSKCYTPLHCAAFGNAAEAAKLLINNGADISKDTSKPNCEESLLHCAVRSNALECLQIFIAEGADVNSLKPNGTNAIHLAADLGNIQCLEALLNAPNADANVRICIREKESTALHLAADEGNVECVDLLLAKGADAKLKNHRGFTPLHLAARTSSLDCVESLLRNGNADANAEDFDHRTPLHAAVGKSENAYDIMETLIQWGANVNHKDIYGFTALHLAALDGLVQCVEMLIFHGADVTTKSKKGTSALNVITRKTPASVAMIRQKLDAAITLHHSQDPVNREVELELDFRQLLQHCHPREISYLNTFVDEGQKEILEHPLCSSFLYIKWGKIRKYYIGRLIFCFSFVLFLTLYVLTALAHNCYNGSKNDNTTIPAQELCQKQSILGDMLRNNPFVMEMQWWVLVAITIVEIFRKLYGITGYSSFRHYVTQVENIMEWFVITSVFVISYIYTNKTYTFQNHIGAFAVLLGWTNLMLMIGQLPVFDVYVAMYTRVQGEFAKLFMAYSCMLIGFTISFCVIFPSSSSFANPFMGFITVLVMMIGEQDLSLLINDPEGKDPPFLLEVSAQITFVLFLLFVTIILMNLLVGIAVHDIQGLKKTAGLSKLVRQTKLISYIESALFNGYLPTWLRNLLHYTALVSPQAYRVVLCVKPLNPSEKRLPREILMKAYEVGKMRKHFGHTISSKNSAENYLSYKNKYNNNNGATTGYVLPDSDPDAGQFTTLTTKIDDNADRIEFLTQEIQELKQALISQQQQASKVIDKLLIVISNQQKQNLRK
As to the kind of experiment: Calcium mobilization (fluo-4AM, FLIPR-TETRA) in CHO-K1 cells co-expressing Water witch and Nanchung. Type of assay: cell-based.

Assay [2] addresses T2, complexes formed by Nanchung protein and Inactive protein (Nan + Iav) (Drosophila melanogaster, UniProt Q9VUD5+Q9W3W0).
T2 construct: full-length Iav C-terminally fused to FLAG tags and AcGFP; adenoviral co-expression in CHO-K1, membranes; [3H]-afidopyropen tracer
T2 sequence (Q9VUD5 1-833): T1 sequence (Q9VUD5 1-833)
T2 sequence (Q9W3W0 1-1123): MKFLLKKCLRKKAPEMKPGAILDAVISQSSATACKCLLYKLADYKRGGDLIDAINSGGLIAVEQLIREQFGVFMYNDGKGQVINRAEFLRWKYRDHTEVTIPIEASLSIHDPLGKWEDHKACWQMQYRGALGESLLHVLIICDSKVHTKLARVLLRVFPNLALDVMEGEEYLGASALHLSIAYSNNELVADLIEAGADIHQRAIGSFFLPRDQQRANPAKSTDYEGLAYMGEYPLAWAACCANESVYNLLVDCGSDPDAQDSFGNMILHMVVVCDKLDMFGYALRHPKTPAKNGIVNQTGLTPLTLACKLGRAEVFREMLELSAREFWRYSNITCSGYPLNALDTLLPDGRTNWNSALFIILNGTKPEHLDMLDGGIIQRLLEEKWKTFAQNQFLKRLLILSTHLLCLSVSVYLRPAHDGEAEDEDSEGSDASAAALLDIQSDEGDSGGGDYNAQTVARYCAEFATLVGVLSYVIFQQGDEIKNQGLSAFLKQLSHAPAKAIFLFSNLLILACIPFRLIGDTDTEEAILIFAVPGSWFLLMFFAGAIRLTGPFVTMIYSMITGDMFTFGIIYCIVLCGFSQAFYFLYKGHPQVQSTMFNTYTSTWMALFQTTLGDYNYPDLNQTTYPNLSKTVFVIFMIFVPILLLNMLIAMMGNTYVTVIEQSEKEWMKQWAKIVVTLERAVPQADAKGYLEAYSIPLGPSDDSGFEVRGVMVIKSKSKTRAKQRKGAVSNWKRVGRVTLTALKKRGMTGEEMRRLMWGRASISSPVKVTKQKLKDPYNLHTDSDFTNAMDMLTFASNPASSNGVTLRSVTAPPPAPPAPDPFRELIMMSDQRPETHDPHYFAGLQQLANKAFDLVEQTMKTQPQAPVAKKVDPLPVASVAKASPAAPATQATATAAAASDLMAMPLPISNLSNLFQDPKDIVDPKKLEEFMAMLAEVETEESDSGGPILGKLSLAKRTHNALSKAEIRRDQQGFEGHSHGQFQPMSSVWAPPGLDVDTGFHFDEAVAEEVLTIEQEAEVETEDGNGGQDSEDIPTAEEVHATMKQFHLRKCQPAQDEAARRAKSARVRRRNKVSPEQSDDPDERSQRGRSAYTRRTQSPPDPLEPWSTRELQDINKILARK
As to the kind of experiment: Competition binding with [3H]-afidopyropen to membranes from CHO-K1 cells co-expressing Nanchung and Inactive. The conditions noted are these: FIG. 6, [3H]-afidopyropen displacement, Nan (SEQ ID NO 7) C-terminal HA/mCherry, Iav (NP_572353) C-terminal FLAG/AcGFP, pH 7.4, 3 h room temperature, Cheng-Prusoff, read-out: Nan + Iav (Nanchung:Inactive complex) Ki.

For assay [3], the target named is T3, complexes formed by Nanchung protein and Water witch protein (Nan + Wtrw) (Drosophila melanogaster, UniProt Q9VHY7+Q9VUD5).
T3 construct: adenoviral co-expression in CHO-K1, membranes; [3H]-afidopyropen tracer
T3 sequence (Q9VUD5 1-833): T1 sequence (Q9VUD5 1-833)
T3 sequence (Q9VHY7 1-986): T1 sequence (Q9VHY7 1-986)
In words: Competition binding with [3H]-afidopyropen to membranes from CHO-K1 cells co-expressing Nanchung and Water witch. The conditions noted are these: FIG. 6, [3H]-afidopyropen displacement, Nan (SEQ ID NO 7) C-terminal HA/mCherry, Wtrw (SEQ ID NO 63) C-terminal FLAG/AcGFP, pH 7.4, 3 h room temperature, Cheng-Prusoff, read-out: Nan + Wtrw (Nanchung:Water witch complex) Ki.

On to `CC1=NNC(=O)N(/N=C/c2cccnc2)C1` [Pymetrozine, pymetrozine], for which the EC50 – broadly, the concentration at which the effect is half-maximal – in assay [1] came to 96 nM. The values for the Ki in assay [2] and in assay [3] were 43 nM and 102 nM, respectively.
